Tested on: immortalized sebocytes (SZ95) and clones
Experiment: Growth behavior / cell proliferation test (4-methylumbelliferyl heptanoate fluorescence assay)
Type: cell-based, human
Conditions: for proliferation response of clones stimulated by retinoids: other clones, corresponds to response of normal human epidermal keratinocytes; for proliferation response of clones stimulated by retinoids / proliferation response of clones inhibited by retinoids: 10^-7 M retinoid, 9 days, FIG. 9; for proliferation response of clones inhibited by retinoids: some clones, order 13-cis-retinoic acid>all-trans-retinoic acid>>Acitretin
Description: _Cells were seeded in 96 well culture plates at densities of 0.5 to 4×10^3 cell/well. Cell proliferation was assessed by the 4-methylumbelliferylheptanoatefluorescence assay and measured automatically (Zouboulis et al. Melanoma. Res. 1991; 1:91-95).
To this extent, on the day of evaluation, the culture medium was removed, the cells were washed twice with PBS and […] 100 μg solution of 4-methylumbelliferyl heptanoate (Sigma, Deisenhofen, Germany) in PBS were added to each well. The plates were then incubated at 37° C. for 30 minutes and released fluorescence was measured by a suitable fluorescence measuring device (Titertec-Fluoroscan II; Flow, Meckenheim, Germany). Fluorescence units were obtained at 355 nm excitation and 460 nm emission filters.
_5α-dihydrctestosterone (5α-DHT; Sigma) was dissolved in DMSO and subsequently in serum-free, phenol-free modified DMEM/Ham's F12-Medium (1:1) (Gibco-BRL) with 2 mM n-Acetyl-L-alanyl-L-glutamine which was supplemented with 5 ng/ml EGF, 50 μg/ml bovine pituary extract, 1 mg/ml fatty acid-free bovine serum albumine (Boehringer Mannheim) and 50 μg/ml gentamycine to obtain a final concentration of 10^−6 M 5α-DHT and 0.1% DMSO. 0.1% DMSO alone served as a control. The cells (0.5 to 2×10^3/well) were treated with 5α-DHT for 18 days.
For the treatment with retinoids, all-trans-retinoic acid, 13-cis-retinoic acid and acitretin were dissolved in DMSO and subsequently placed in serum-free modified DME-Medium/Ham's F12-Medium (1:1) with […] N-Acetyl-L-alanyl-L-glutamine which was supplemented with 5 ng/ml EGE, 50 μg/ml bovine pituary extract, 1 mg/ml fatty acid-free bovine serum albumine and 50·μg/ml gentamycine to obtain a final concentration of 10^−7 M retinoid and 0,1% DMSO. 0,1% DMSO alone served as a control. Retinoids were handled under dim amber light. The cells (0.5 to 1×10^3/well) were treated with the retinoids for 9 days.

Row | SMILES | effect on proliferation of the cells (10^-6 M 5α-DHT, serum-free medium, after the 8th day, vs control (p<0.05; p<0.01), FIG. 8) | population doubling time (exemplary sebocyte clone, seeding 2.000/well, serum-free medium supplemented with 10^-6 M 5α-DHT, 18 days, control 136 hours) [h] | proliferation response of clones stimulated by retinoids (serum-free medium) | proliferation response of clones inhibited by retinoids (serum-free medium)
1 | C[C@]12CCC(=O)C[C@@H]1CC[C@@H]1[C@@H]2CC[C@]2(C)[C@@H](O)CC[C@@H]12 [5α-DHT, 5α-dihydrctestosterone] | increased the proliferation of the cells significantly | 53.7 |  | 
2 | CC1=C(/C=C/C(C)=C/C=C/C(C)=C\C(=O)O)C(C)(C)CCC1 [13-cis-retinoic acid] |  |  | stimulated in proliferation | inhibition of proliferation
3 | COc1cc(C)c(/C=C/C(C)=C/C=C/C(C)=C/C(=O)O)c(C)c1C [Acitretin, acitretin] |  |  |  | inhibition of proliferation
4 | CC1=C(/C=C/C(C)=C/C=C/C(C)=C/C(=O)O)C(C)(C)CCC1 [all-trans-retinoic acid] |  |  | stimulated in proliferation | inhibition of proliferation

Reference: patent publication US20160237406A1, “SEBOCYTES, SEBOCYTE CELL LINES AND APPLICATIONS THEREOF” (priority 2001, published 2016)
